Test results from US9738634B2, “Heterocyclic amide compound and herbicide” (SYNGENTA PARTICIPATIONS AG, priority 2013, dated 2017).

What was measured:
Assay type in all cases: in vivo
Details in all cases: treatment dosage 320 g/ha
barnyard grass [1] = assay: Test Example 3: weedkilling efficacy through soil treatment; F: barnyard grass
How it was run: (§1)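 Crop and weed responses were judged three weeks after a uniform surface spray of the water-diluted emulsion at the given g/ha rate. Seeds sat beneath about 1.5 cm of sterilized diluvial soil, and boxes stood in a greenhouse at 25 to 30° C.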

wheat [2] = assay: Test Example 4: foliar treatment, effect on crop; e: wheat
How it was run: (§2)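 Seeds are spot-sown into sterilized diluvial soil and covered with about 1.5 cm of soil. After 14 days' greenhouse growth at 25 to 30° C, plants are sprayed on stems and leaves with diluted emulsion at the stated g/ha rate, then scored at 3 weeks.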

birds-eye speedwell [3] = assay: Test Example 3: weedkilling efficacy through soil treatment; p: birds-eye speedwell
How it was run: as §1

barnyard grass [4] = assay: Test Example 4: weedkilling efficacy by foliar treatment; F: barnyard grass
How it was run: as §2

chickweed [5] = assay: Test Example 3: weedkilling efficacy through soil treatment; N: chickweed
How it was run: as §1

black-grass [6] = assay: Test Example 4: weedkilling efficacy by foliar treatment; H: black-grass
How it was run: as §2

transplanted rice = assay: Test Example 1: preemergent weed treatment in the submerged state, effect on crop; a: transplanted rice
How it was run: (§3)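 Pre-emergence application onto floodwater (4 cm, alluvial soil) on the day of sowing, dose expressed as g/ha from diluted emulsion formulation. Weeds sown with 2.5-leaf transplanted rice as crop; plants held at 25–30 °C in greenhouse and scored against assessment criteria after 3 weeks.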

black-grass [7] = assay: Test Example 3: weedkilling efficacy through soil treatment; H: black-grass
How it was run: as §1

soybean [8] = assay: Test Example 4: foliar treatment, effect on crop; d: soybean
How it was run: as §2

oval-leafed pondweed [9] = assay: Test Example 2: weedkilling efficacy, growth period weed treatment in the submerged state; C: oval-leafed pondweed
How it was run: (§4)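 Weeds treated at the 1-2 leaf stage by application of diluted emulsion onto floodwater (4 cm depth, alluvial soil) at specified g/ha. Grown in greenhouse at 25 to 30° C; herbicidal effect rated three weeks after treatment.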

barnyard grass [10] = assay: Test Example 1: weedkilling efficacy, preemergent weed treatment in the submerged state; A: barnyard grass
How it was run: as §3

Indian mallow [11] = assay: Test Example 4: weedkilling efficacy by foliar treatment; K: Indian mallow
How it was run: as §2

green foxtail [12] = assay: Test Example 4: weedkilling efficacy by foliar treatment; E: green foxtail
How it was run: as §2

beet [13] = assay: Test Example 4: foliar treatment, effect on crop; f: beet
How it was run: as §2

directly sown rice [14] = assay: Test Example 3: soil treatment, effect on crop; b: directly sown rice
How it was run: as §1

wheat [15] = assay: Test Example 3: soil treatment, effect on crop; e: wheat
How it was run: as §1

oval-leafed pondweed [16] = assay: Test Example 1: weedkilling efficacy, preemergent weed treatment in the submerged state; C: oval-leafed pondweed
How it was run: as §3

corn [17] = assay: Test Example 4: foliar treatment, effect on crop; c: corn
How it was run: as §2

green foxtail [18] = assay: Test Example 3: weedkilling efficacy through soil treatment; E: green foxtail
How it was run: as §1

chickweed [19] = assay: Test Example 4: weedkilling efficacy by foliar treatment; N: chickweed
How it was run: as §2

bulrush [20] = assay: Test Example 1: weedkilling efficacy, preemergent weed treatment in the submerged state; B: bulrush
How it was run: as §3

Indian mallow [21] = assay: Test Example 3: weedkilling efficacy through soil treatment; K: Indian mallow
How it was run: as §1

birds-eye speedwell [22] = assay: Test Example 4: weedkilling efficacy by foliar treatment; p: birds-eye speedwell
How it was run: as §2

soybean [23] = assay: Test Example 3: soil treatment, effect on crop; d: soybean
How it was run: as §1

rapeseed [24] = assay: Test Example 4: foliar treatment, effect on crop; g: rapeseed
How it was run: as §2

common wind-grass [25] = assay: Test Example 4: weedkilling efficacy by foliar treatment; J: common wind-grass
How it was run: as §2

catchweed [26] = assay: Test Example 4: weedkilling efficacy by foliar treatment; O: catchweed
How it was run: as §2

rapeseed [27] = assay: Test Example 3: soil treatment, effect on crop; g: rapeseed
How it was run: as §1

bulrush [28] = assay: Test Example 2: weedkilling efficacy, growth period weed treatment in the submerged state; B: bulrush
How it was run: as §4

barnyard grass [29] = assay: Test Example 2: weedkilling efficacy, growth period weed treatment in the submerged state; A: barnyard grass
How it was run: as §4

redroot pigweed [30] = assay: Test Example 3: weedkilling efficacy through soil treatment; L: redroot pigweed
How it was run: as §1

redroot pigweed [31] = assay: Test Example 4: weedkilling efficacy by foliar treatment; L: redroot pigweed
How it was run: as §2

corn [32] = assay: Test Example 3: soil treatment, effect on crop; c: corn
How it was run: as §1

directly sown rice [33] = assay: Test Example 4: foliar treatment, effect on crop; b: directly sown rice
How it was run: as §2

wild oat [34] = assay: Test Example 4: weedkilling efficacy by foliar treatment; G: wild oat
How it was run: as §2

beet [35] = assay: Test Example 3: soil treatment, effect on crop; f: beet
How it was run: as §1

Italian ryegrass [36] = assay: Test Example 4: weedkilling efficacy by foliar treatment; I: Italian ryegrass
How it was run: as §2

crabgrass [37] = assay: Test Example 3: weedkilling efficacy through soil treatment; D: crabgrass
How it was run: as §1

crabgrass [38] = assay: Test Example 4: weedkilling efficacy by foliar treatment; D: crabgrass
How it was run: as §2

wild oat [39] = assay: Test Example 3: weedkilling efficacy through soil treatment; G: wild oat
How it was run: as §1

common wind-grass [40] = assay: Test Example 3: weedkilling efficacy through soil treatment; J: common wind-grass
How it was run: as §1

Italian ryegrass [41] = assay: Test Example 3: weedkilling efficacy through soil treatment; I: Italian ryegrass
How it was run: as §1

fig-leafed goosefoot [42] = assay: Test Example 3: weedkilling efficacy through soil treatment; M: fig-leafed goosefoot
How it was run: as §1

fig-leafed goosefoot [43] = assay: Test Example 4: weedkilling efficacy by foliar treatment; M: fig-leafed goosefoot
How it was run: as §2

catchweed [44] = assay: Test Example 3: weedkilling efficacy through soil treatment; O: catchweed
How it was run: as §1

## CC1=C(c2ccccc2)C(=O)N(C(C)(C)C(=O)Nc2cc(C(F)F)ccn2)CO1 [B-2-54]
Barnyard grass [1]
  F (barnyard grass) weedkilling efficacy grade: 5 (weed kill ratio 90% or more, (practically complete withering))
Wheat [2]
  e (wheat) effect on crop grade: 0 (weed kill ratio 5% or less (practically no effect))
birds-eye speedwell [3]
  P (birds-eye speedwell) weedkilling efficacy grade: 5 (weed kill ratio 90% or more, (practically complete withering))
Barnyard grass [4]
  F (barnyard grass) weedkilling efficacy grade: 5 (weed kill ratio 90% or more, (practically complete withering))
Chickweed [5]
  N (chickweed) weedkilling efficacy grade: 4 (weed kill ratio 70% or more, less than 90%)
black-grass [6]
  H (black-grass) weedkilling efficacy grade: 5 (weed kill ratio 90% or more, (practically complete withering))
Transplanted rice
  a (transplanted rice) effect on crop grade: 5 (weed kill ratio 90% or more, (practically complete withering))
black-grass [7]
  H (black-grass) weedkilling efficacy grade: 5 (weed kill ratio 90% or more, (practically complete withering))
Soybean [8]
  d (soybean) effect on crop grade: 4 (weed kill ratio 70% or more, less than 90%)
oval-leafed pondweed [9]
  C (oval-leafed pondweed) weedkilling efficacy grade: 5 (weed kill ratio 90% or more, (practically complete withering))
Barnyard grass [10]
  A (barnyard grass) weedkilling efficacy grade: 5 (weed kill ratio 90% or more, (practically complete withering))
Indian mallow [11]
  K (Indian mallow) weedkilling efficacy grade: 4 (weed kill ratio 70% or more, less than 90%)
Green foxtail [12]
  E (green foxtail) weedkilling efficacy grade: 5 (weed kill ratio 90% or more, (practically complete withering))
Beet [13]
  f (beet) effect on crop grade: 4 (weed kill ratio 70% or more, less than 90%)
Directly sown rice [14]
  b (directly sown rice) effect on crop grade: 5 (weed kill ratio 90% or more, (practically complete withering))
Wheat [15]
  e (wheat) effect on crop grade: 0 (weed kill ratio 5% or less (practically no effect))
oval-leafed pondweed [16]
  C (oval-leafed pondweed) weedkilling efficacy grade: 5 (weed kill ratio 90% or more, (practically complete withering))
Corn [17]
  c (corn) effect on crop grade: 3 (weed kill ratio 40% or more, less than 70%)
Green foxtail [18]
  E (green foxtail) weedkilling efficacy grade: 5 (weed kill ratio 90% or more, (practically complete withering))
Chickweed [19]
  N (chickweed) weedkilling efficacy grade: 4 (weed kill ratio 70% or more, less than 90%)
Bulrush [20]
  B (bulrush) weedkilling efficacy grade: 5 (weed kill ratio 90% or more, (practically complete withering))
Indian mallow [21]
  K (Indian mallow) weedkilling efficacy grade: 3 (weed kill ratio 40% or more, less than 70%)
birds-eye speedwell [22]
  P (birds-eye speedwell) weedkilling efficacy grade: 4 (weed kill ratio 70% or more, less than 90%)
Soybean [23]
  d (soybean) effect on crop grade: 0 (weed kill ratio 5% or less (practically no effect))
Rapeseed [24]
  g (rapeseed) effect on crop grade: 4 (weed kill ratio 70% or more, less than 90%)
Common wind-grass [25]
  J (common wind-grass) weedkilling efficacy grade: 5 (weed kill ratio 90% or more, (practically complete withering))
Catchweed [26]
  O (catchweed) weedkilling efficacy grade: 4 (weed kill ratio 70% or more, less than 90%)
Rapeseed [27]
  g (rapeseed) effect on crop grade: 4 (weed kill ratio 70% or more, less than 90%)
Bulrush [28]
  B (bulrush) weedkilling efficacy grade: 5 (weed kill ratio 90% or more, (practically complete withering))
Barnyard grass [29]
  A (barnyard grass) weedkilling efficacy grade: 5 (weed kill ratio 90% or more, (practically complete withering))
Redroot pigweed [30]
  L (redroot pigweed) weedkilling efficacy grade: 4 (weed kill ratio 70% or more, less than 90%)
Redroot pigweed [31]
  L (redroot pigweed) weedkilling efficacy grade: 4 (weed kill ratio 70% or more, less than 90%)
Corn [32]
  c (corn) effect on crop grade: 2 (weed kill ratio 20% or more, less than 40%)
Directly sown rice [33]
  b (directly sown rice) effect on crop grade: 5 (weed kill ratio 90% or more, (practically complete withering))
Wild oat [34]
  G (wild oat) weedkilling efficacy grade: 5 (weed kill ratio 90% or more, (practically complete withering))
Beet [35]
  f (beet) effect on crop grade: 4 (weed kill ratio 70% or more, less than 90%)
Italian ryegrass [36]
  I (Italian ryegrass) weedkilling efficacy grade: 5 (weed kill ratio 90% or more, (practically complete withering))
Crabgrass [37]
  D (crabgrass) weedkilling efficacy grade: 5 (weed kill ratio 90% or more, (practically complete withering))
Crabgrass [38]
  D (crabgrass) weedkilling efficacy grade: 5 (weed kill ratio 90% or more, (practically complete withering))
Wild oat [39]
  G (wild oat) weedkilling efficacy grade: 5 (weed kill ratio 90% or more, (practically complete withering))
Common wind-grass [40]
  J (common wind-grass) weedkilling efficacy grade: 5 (weed kill ratio 90% or more, (practically complete withering))
Italian ryegrass [41]
  I (Italian ryegrass) weedkilling efficacy grade: 5 (weed kill ratio 90% or more, (practically complete withering))
fig-leafed goosefoot [42]
  M (fig-leafed goosefoot) weedkilling efficacy grade: 3 (weed kill ratio 40% or more, less than 70%)
fig-leafed goosefoot [43]
  M (fig-leafed goosefoot) weedkilling efficacy grade: 4 (weed kill ratio 70% or more, less than 90%)
Catchweed [44]
  O (catchweed) weedkilling efficacy grade: 4 (weed kill ratio 70% or more, less than 90%)
